Test results reported in PubChem BioAssay (NCI).
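96-well plates; 48 h exposure; 5 concentrations. Endpoints by linear interpolation between flanking doses. Not reached: highest tested concentration assigned. Abbreviation: GI50, concentration required for 50% inhibition of growth. The concentration for full growth arrest is given as TGI.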

Columns and labels:
Experiment in all cases: growth of human tumour cells (NCI), 48 h
786-0 renal = system: 786-0 renal
HCT-116 colon = system: HCT-116 colon
HCT-15 colon = system: HCT-15 colon
KM12 colon = system: KM12 colon
LOX IMVI melanoma = system: LOX IMVI melanoma
M14 melanoma = system: M14 melanoma
NCI-H23 lung = system: NCI-H23 lung
OVCAR-8 ovarian = system: OVCAR-8 ovarian
SN12C renal = system: SN12C renal
SW-620 colon = system: SW-620 colon

COc1ccc(NC(=O)/C=C(C)/C=C/C=C(C)\C=C\C2=C(C)CCCC2(C)C)cc1
GI50 (786-0 renal): 90.3 µM | TGI (786-0 renal): > 100 µM | GI50 (HCT-116 colon): 28.6 µM | TGI (HCT-116 colon): > 100 µM | GI50 (HCT-15 colon): > 100 µM | TGI (HCT-15 colon): > 100 µM | GI50 (KM12 colon): 62.8 µM | TGI (KM12 colon): > 100 µM | GI50 (LOX IMVI melanoma): 32 µM | TGI (LOX IMVI melanoma): > 100 µM | GI50 (M14 melanoma): > 100 µM | TGI (M14 melanoma): > 100 µM | GI50 (NCI-H23 lung): 30.1 µM | TGI (NCI-H23 lung): > 100 µM | GI50 (OVCAR-8 ovarian): > 100 µM | TGI (OVCAR-8 ovarian): > 100 µM | GI50 (SN12C renal): 97.3 µM | TGI (SN12C renal): > 100 µM | GI50 (SW-620 colon): 51.6 µM | TGI (SW-620 colon): > 100 µM

CC(=O)CC(=O)/C=C/c1cccs1
TGI (786-0 renal): > 100 µM | TGI (HCT-116 colon): > 100 µM | TGI (HCT-15 colon): > 100 µM | TGI (KM12 colon): > 100 µM | TGI (LOX IMVI melanoma): > 100 µM | TGI (M14 melanoma): > 100 µM | TGI (NCI-H23 lung): > 100 µM | TGI (OVCAR-8 ovarian): > 100 µM | TGI (SN12C renal): > 100 µM | TGI (SW-620 colon): > 100 µM

Cc1ccc2c(c1)C(=O)c1c-2n(CCCN=[N+]=[N-])c(=O)c2cc([N+](=O)[O-])ccc12
GI50 (786-0 renal): 29.8 µM | TGI (786-0 renal): > 100 µM | GI50 (HCT-116 colon): 20.5 µM | TGI (HCT-116 colon): > 100 µM | GI50 (HCT-15 colon): > 100 µM | TGI (HCT-15 colon): > 100 µM | GI50 (KM12 colon): 83 µM | TGI (KM12 colon): > 100 µM | GI50 (LOX IMVI melanoma): 33.2 µM | TGI (LOX IMVI melanoma): > 100 µM | GI50 (M14 melanoma): > 100 µM | TGI (M14 melanoma): > 100 µM | GI50 (NCI-H23 lung): > 100 µM | TGI (NCI-H23 lung): > 100 µM | GI50 (OVCAR-8 ovarian): > 100 µM | TGI (OVCAR-8 ovarian): > 100 µM | GI50 (SN12C renal): 59.4 µM | TGI (SN12C renal): > 100 µM | GI50 (SW-620 colon): 59.7 µM | TGI (SW-620 colon): > 100 µM

NS(=O)(=O)c1ccc(NC(=O)Nc2ccccc2F)cc1
TGI (786-0 renal): > 100 µM | TGI (HCT-116 colon): > 100 µM | TGI (HCT-15 colon): > 100 µM | TGI (KM12 colon): > 100 µM | TGI (LOX IMVI melanoma): > 100 µM | TGI (M14 melanoma): > 100 µM | TGI (NCI-H23 lung): > 100 µM | TGI (OVCAR-8 ovarian): > 100 µM | TGI (SN12C renal): > 100 µM | TGI (SW-620 colon): > 100 µM
